# Assay: Angle of repose according to Ph.Eur. chapter 2.9.36
# Type: physicochemical
# Settings: prior to agglomeration
# Excerpt: Any flow property provisions such as “passable”, “poor” or “very poor” as used herein shall be understood as flow properties measured and ranked according to pharmacopoeial standards (e.g. European Pharmacopoeia, 6th edition, chapter 2.9.36) unless where specified otherwise: […]
smiles,measurement,value
CN(C)CCOC(c1ccccc1)c1ccccc1.Cn1c(=O)c2[nH]c(Cl)nc2n(C)c1=O [Dimenhydrinate],Angle of repose,52 °
